{"source": "paper PMC6182381", "about": "“Population Pharmacokinetics and Exposure-Response Relationships of Naldemedine” (Pharmaceutical Research, 2018)", "key": {"[1]": {"tested_on": "patients with chronic non-cancer pain and OIC", "test": "SBM responder, phase 2b study 1107 V9221 (observed and PK/Efficacy logistic model)", "format": "in vivo, human", "conditions": "for SBM responder, Observation / SBM responder, Prediction: 1107V9221 (Phase 2b); for SBM Non_Responder frequency / SBM Responder frequency: PK/efficacy population, 1107 V9221 (Phase 2b); for Predicted probability of SBM responder: Phase 2b model", "from_the_text": "(§1) Exposure-response analysis was used to evaluate the efficacy and safety data of the phase 2b and phase 3 studies ([2],[5]). The PK/Efficacy analysis included the subjects of the population PK analysis or in the placebo group, who also had efficacy data for the exposure-response analysis obtained from phase 2b and phase 3 studies (1107 V9221, 1314 V9231, and 1315 V9232). The PK/Safety analysis included the subjects of the population PK analysis or in the placebo group, who also had safety data for exposure-response analysis obtained from phase 2b and phase 3 studies (1107 V9221, 1314 V9231, and 1315 V9232).\n(§2) The following efficacy variables were used to evaluate the exposure-response relationship. […] In the phase 3 studies (Study No. 1314 V9231 and 1315 V9232), an SBM responder was defined as having 9 positive response weeks or more out of the 12-weeks treatment period and 3 positive response weeks out of the last 4 weeks of the 12-weeks treatment period. A positive response week was defined as a week with both ≥3 SBMs and an increase of ≥1 SBM from the baseline. A subject with any insufficient response data was treated as a “non-responder”. The occurrence of treatment-emergent adverse events of gastrointestinal disorders as system organ class, which was the most frequently occurring type, was defined by the severity and assessed as safety variables.\n(§3) No covariate was tested in the exposure-response analysis because no prognostic factors of the efficacy or safety were identified in the phase 2b and phase 3 studies ([2],[5]). Efficacy and safety data in Study No. 1314 V9231 and 1315 V9232 were combined because these studies were conducted as pivotal phase 3 studies using the same study design and were of the same treatment duration. The individual AUCss values for naldemedine were estimated by empirical Bayes estimation based on the population PK model. AUCss values of the subjects in the placebo group were treated as zero (0). For efficacy (responder or non-responder) and safety (occurrence of gastrointestinal disorders or not) variables, relationships to PK parameters were examined using the logistic model as shown in Eq. (3) with SAS (Version 9.2, SAS Institute).3 Probabilityefficacy or safety event=1/1+exp−a−b×PKparameter where a and b are the parameters to be estimated."}, "[2]": {"tested_on": "patients with chronic non-cancer pain and OIC", "test": "SBM responder, phase 3 studies 1314 V9231 and 1315 V9232 (observed and PK/Efficacy logistic model)", "format": "in vivo, human", "conditions": "for Predicted probability of SBM responder: Phase 3 model", "from_the_text": "as §1, §2, §3"}, "[3]": {"design": "method as in PMID 28466424, PMID 28960888", "conditions": "cited from earlier work"}, "[4]": {"tested_on": "patients with chronic non-cancer pain and OIC", "design": "method as in PMID 28371937", "conditions": "Study 1107 V9221 (Phase 2b), cited from earlier work"}, "[5]": {"conditions": "1314V9231 and 1315V9232 (Phase 3), 0.2 mg"}, "[6]": {"conditions": "PK/efficacy population, 1314 V9231 and 1315 V9232 (Phase 3), 0.2 mg"}}, "note": "Where two headings read alike, the source gives them in different places.", "data": [{"smiles": "CC(C)(NC(=O)C1=C(O)[C@@H]2Oc3c(O)ccc4c3[C@@]23CCN(CC2CC2)[C@H](C4)[C@]3(O)C1)c1nc(-c2ccccc2)no1", "note": "[naldemedine]", "values": [{"measurement": "predicted probability of SBM responders", "setting": "[1]; 0.2 mg, phase 2b study 1107 V9221", "value": 52.7, "unit": "%"}, {"measurement": "SBM responder, Observation", "setting": "[1]; 0.1 mg", "value": 55.6}, {"measurement": "SBM responder, Prediction", "setting": "[1]; 0.1 mg", "value": 47.4}, {"measurement": "SBM responder, Observation", "setting": "[1]; 0.2 mg", "value": 66.7}, {"measurement": "SBM responder, Prediction", "setting": "[1]; 0.2 mg", "value": 52.7}, {"measurement": "SBM responder, Observation", "setting": "[1]; 0.4 mg", "value": 60.0}, {"measurement": "SBM responder, Prediction", "setting": "[1]; 0.4 mg", "value": 63.0}, {"measurement": "SBM Non_Responder frequency", "setting": "[1]; 0.1 mg", "value": "4 (44.4) Count (Percent)"}, {"measurement": "SBM Responder frequency", "setting": "[1]; 0.1 mg", "value": "5 (55.6) Count (Percent)"}, {"measurement": "SBM Non_Responder frequency", "setting": "[1]; 0.2 mg", "value": "3 (33.3) Count (Percent)"}, {"measurement": "SBM Responder frequency", "setting": "[1]; 0.2 mg", "value": "6 (66.7) Count (Percent)"}, {"measurement": "SBM Non_Responder frequency", "setting": "[1]; 0.4 mg", "value": "4 (40.0) Count (Percent)"}, {"measurement": "SBM Responder frequency", "setting": "[1]; 0.4 mg", "value": "6 (60.0) Count (Percent)"}, {"measurement": "Predicted probability of SBM responder", "setting": "[1]; Dose: 0.1 mg", "value": 0.474}, {"measurement": "Predicted probability of SBM responder", "setting": "[1]; Dose: 0.2 mg", "value": 0.527}, {"measurement": "Predicted probability of SBM responder", "setting": "[1]; Dose: 0.4 mg", "value": 0.630}, {"measurement": "predicted probability of SBM responders", "setting": "[2]; 0.2 mg once daily, phase 2b and phase 3 studies", "value": "approximately 50%"}, {"measurement": "predicted probability of SBM responders", "setting": "[2]; 0.2 mg, phase 3 studies 1314 V9231 and 1315 V9232", "value": 49.9, "unit": "%"}, {"measurement": "SBM responder, Observation", "setting": "[2]; [5]", "value": 53.3}, {"measurement": "SBM responder, Prediction", "setting": "[2]; [5]", "value": 49.9}, {"measurement": "SBM Non_Responder frequency", "setting": "[2]; [6]", "value": "208 (46.7) Count (Percent)"}, {"measurement": "SBM Responder frequency", "setting": "[2]; [6]", "value": "237 (53.3) Count (Percent)"}, {"measurement": "Predicted probability of SBM responder", "setting": "[2]; Dose: 0.1 mg", "value": 0.433}, {"measurement": "Predicted probability of SBM responder", "setting": "[2]; Dose: 0.2 mg", "value": 0.499}, {"measurement": "Predicted probability of SBM responder", "setting": "[2]; Dose: 0.4 mg", "value": 0.630}, {"measurement": "time dependence of PK", "setting": "[3]; AUC Day 1 vs AUCss Day 10, multiple dose study", "value": "time-independent"}, {"measurement": "dose proportionality of systemic exposure", "setting": "[3]; dose range 0.1 mg to 100 mg", "value": "almost dose proportional"}, {"measurement": "time to reach steady state", "setting": "[3]; multiple dose study, 3 mg, 10 mg and 30 mg, trough Days 2 to 10", "value": "≤ 2", "unit": "days"}, {"measurement": "proportion of SBM responders", "setting": "[4]; 0.1 mg", "value": 52.5, "unit": "%"}, {"measurement": "proportion of SBM responders", "setting": "[4]; 0.2 mg", "value": 71.2, "unit": "%"}, {"measurement": "proportion of SBM responders", "setting": "[4]; 0.4 mg", "value": 66.7, "unit": "%"}]}]}
